Our source for the Activity and Drug uptake values is ChEMBL document CHEMBL3400111, “Synthesis and melanogenesis evaluation of 3',4',7-trihydroxyflavanone derivatives and characterization of flavanone-BODIPY” (Bioorg Med Chem Lett, 2015).

Activity calls are given as the source filed them. No cut-off for these calls is given here.

Series [1] concerns B16-F10. Nature of the series: Induction of melanin synthesis in mouse B16F10 cells after 48 hrs by fluorescence microscopy relative to control. In kind it is functional. More on the design: concentration or dose not given beside the values.
Series [2] can be described thus: Cellular uptake in mouse B16F10 cells at 0.1 uM after 4 hrs by confocal imaging analysis in presence of 0.1 to 1 uM 3',4',7-trihydroxyflavaonone. It is filed as ADME, cell-based. Particulars: b16-f10, 4 h.
A short description of series [3]: Drug uptake in mouse B16F10 cell endoplasmic reticulum at 0.1 uM after 4 hrs by ER-tracker Red staining-based confocal imaging analysis. In kind it is ADME. The conditions noted are these: b16-f10, 4 h.
Series [4] is described as follows: Drug uptake in mouse B16F10 cell nucleus at 0.1 uM after 4 hrs by DAPI staining-based confocal imaging analysis. In kind it is ADME. Particulars: b16-f10, 4 h.
The subject of series [5] is B16-F10. Nature of the series: Induction of melanogenesis in mouse B16F10 cells at 0.01 to 10 uM after 48 hrs by fluorescence microscopy relative to control. In kind it is functional, cell-based.
Series [6] deals with Mus musculus. Nature of the series: Induction of melanogenesis in C57BL/6 depigmentation mouse assessed as increase in tyrosinase protein expression at 1.6 to 4.8 mg/kg, ip for 2 weeks measured on day 12 by H&E staining-based histomorphology. In kind it is functional, organism-based.
Series [7] relates to Mus musculus. Nature of the series: Induction of melanogenesis in C57BL/6 depigmentation mouse assessed as increase in TRP-2 protein expression at 1.6 to 4.8 mg/kg, ip for 2 weeks measured on day 12 by H&E staining-based histomorphology. It is filed as functional, organism-based.
For series [8], the system named is Mus musculus. Nature of the series: Induction of melanogenesis in C57BL/6 depigmentation mouse assessed as increase in melanin content of hair follicle on depigmented skin at 1.6 to 4.8 mg/kg, ip for 2 weeks by H&E stainig-based histomorphology. In kind it is functional, organism-based.
For series [9], the system named is Mus musculus. The series can be described thus: Induction of melanogenesis in C57BL/6 depigmentation mouse assessed as increase in MITF protein expression at 1.6 to 4.8 mg/kg, ip for 2 weeks measured on day 12 by H&E staining-based histomorphology. In kind it is functional, organism-based.
For series [10], the system named is Mus musculus. Nature of the series: Induction of melanogenesis in C57BL/6 depigmentation mouse assessed as increase in TRP-1 protein expression at 1.6 to 4.8 mg/kg, ip for 2 weeks measured on day 12 by H&E staining-based histomorphology. In kind it is functional, organism-based.

In series [1], `CCCCCCCCCCCCCC(=O)Oc1ccc(C2CC(=O)c3ccc(OC)cc3O2)cc1O` (centres undefined) displayed an Activity of 44.63%.

For `COc1ccc2c(c1)OC(c1ccc(OC(=O)c3ccccc3)c(OC(=O)c3ccccc3)c1)CC2=O` (centres undefined), the Activity in series [1] was 121.43%.

In turn, `CCCCCCCCCCCC(=O)Oc1ccc(C2CC(=O)c3ccc(OC)cc3O2)cc1O` (centres undefined) gave an Activity in [1] of 74.13%.

As for `CC1=CC(C)=[N+]2C1=C(CCC(=O)N/N=C1\CC(c3ccc(O)c(O)c3)Oc3cc(O)ccc31)c1c(C)cc(C)n1[B-]2(F)F` (centres undefined), the Drug uptake result was “Not Active” in series [2], “Active” in series [3] and “Active” in [4]. Moreover, the result in series [5] was Active.

`C=CCOc1ccc(C2CC(=O)c3ccc(OC)cc3O2)cc1OCC=C` (centres undefined) yielded an Activity in series [1] of 91.19%.

In [1], `CCCCCCCCCCCC(=O)Oc1ccc(C2CC(=O)c3ccc(OC)cc3O2)cc1OC(=O)CCCCCCCCCCC` (centres undefined) displayed an Activity of 89.54%.

`COc1ccc2c(c1)OC(c1ccc(OS(=O)(=O)c3ccc(C)cc3)c(OS(=O)(=O)c3ccc(C)cc3)c1)CC2=O` (centres undefined) came in with an Activity in [1] of 100.52%.

For the compound `CCC(=O)Oc1ccc(C2CC(=O)c3ccc(OC)cc3O2)cc1OC(=O)CC` (centres undefined), the Activity in series [1] is reported as 133.65%.

The compound `COc1ccc2c(c1)OC(c1ccc(OC(=O)c3ccco3)c(OC(=O)c3ccco3)c1)CC2=O` (centres undefined) displayed an Activity in series [1] of 96.11%.

`COc1ccc2c(c1)OC(c1ccc(OC(=O)c3ccc(F)cc3)c(OC(=O)c3ccc(F)cc3)c1)CC2=O` (centres undefined) had an Activity in [1] of 111.79%.

Regarding `COc1ccc2c(c1)OC(c1ccc(O)c(O)c1)C/C2=N/O` (centres undefined), the result in [6], in [7], in [8], in series [9] and in series [10] was Active. In addition, in series [1], the Activity is 134.71%.

The compound `COc1ccc2c(c1)OC(c1ccc(O)c(O)c1)CC2=O` (centres undefined) came in with an Activity in series [1] of 110.31%.

`COc1ccc2c(c1)OC(c1ccc(OC(=O)c3ccc(C)cc3)c(OC(=O)c3ccc(C)cc3)c1)CC2=O` (centres undefined) had an Activity in series [1] of 113.49%.

`COc1ccc2c(c1)OC(c1ccc(OC(C)=O)c(OC(C)=O)c1)CC2=O` (centres undefined): the Activity in series [1] was found to be 132.3%.

As to `COc1ccc2c(c1)OC(c1ccc(OC(=O)c3ccc(Cl)cc3)c(OC(=O)c3ccc(Cl)cc3)c1)CC2=O` (centres undefined), the Activity in series [1] turned out to be 121.98%.

`COc1ccc2c(c1)OC(c1ccc(OC(=O)c3ccccc3Cl)c(OC(=O)c3ccccc3Cl)c1)CC2=O` (centres undefined): the Activity in series [1] stood at 119.46%.
